Data published in paper PMC7529893, “Structural basis for substrate recognition and chemical inhibition of oncogenic MAGE ubiquitin ligases” (Nature Communications, 2020).
In brackets after ≈: the same amount, converted by molar mass. Peptide text beside a SMILES is read from it.

Legend:
[1] = target: T1, GST-MAGE-A11 MHD (Homo sapiens, UniProt P43364); assay: TR-FRET competition assay of PCF11 peptides against GST-MAGE-A11 MHD / FAM-PCF11_4; conditions: Fig. 1c, panel of eight PCF11 peptides; read-out: IC50, binding of PCF11 peptide to GST-MAGE-A11 by TR-FRET
T1 construct: GST-MAGE-A11 MHD (human MAGE-A11 MHD amino acid 218-429); made in house; host or cells: E. coli BL21(DE3)
T1 sequence (P43364 218-429): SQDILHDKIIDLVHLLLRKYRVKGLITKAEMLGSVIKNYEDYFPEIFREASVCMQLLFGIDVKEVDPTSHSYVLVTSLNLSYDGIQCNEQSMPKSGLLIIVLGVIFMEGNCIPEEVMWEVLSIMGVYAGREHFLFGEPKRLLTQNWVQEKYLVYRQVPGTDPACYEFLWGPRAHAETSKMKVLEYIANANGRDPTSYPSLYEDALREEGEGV
Description: The TR-FRET assay buffer with a formula of 50 mM Tris pH 7.5, 20 mM MgCl2, 0.1 mg/ml BSA and 1 mM DTT was freshly prepared before each experiment. All TR-FRET assays were performed in black 384-well plates with 20 µl/well assay volume in the TR-FRET assay buffer at room temperature (~25 °C). All peptides or compounds were solubilized in DMSO. To test the competitive activity of peptides or compounds against the interaction between GST-MAGE-A11 MHD and FAM-PCF11_4 peptide, 10 µl/well peptide or compound at specified concentration was dispensed into a black 384-well low volume plate, followed by 5 µl/well FAM-PCF11_4 (800 nM), 5 µl/well Tb-anti-GST (20 nM), and GST-MAGE-A11 MHD (20 nM). The assay components in each well was then mixed by shaking the plate on an IKA MTS 2/4 digital microtiter plate shaker (IKA Works; Wilmington, NC, USA) for 1 min. The plate was further centrifuged in an Eppendorf 5810 centrifuge with an A-4-62 swing-bucket rotor (Eppendorf AG, Hamburg, Germany) at 201 g for 30 s. The plate was then incubated for 90 min with a lid to avoid light exposure to the assay components. After incubation, the fluorescent emission signals at 520 nm and 490 nm channels of individual wells were measured with a PHERAstar FS plate reader (BMG Labtech; Durham, NC, USA) by using a 340 nm excitation filter, 100 µs delay time, and 200 µs integration time. The TR-FRET fluorescence emission ratio (TR-FRET signal) for each well was presented as 10,000 × 520 nm/490 nm, which was used directly for curve fitting, or further converted to %Inhibition based on the respective positive and negative controls. The graphic software GraphPad Prism 4.81 (GraphPad Software; La Jolla, CA, USA) was used to generate curves and derive IC50 values of tested peptides or compounds, if applicable.
TR-FRET inhibitory activity characterization of a panel of PCF11 peptides against the interaction between GST-MAGE-A11 MHD and FAM-PCF11_4 was performed as follows. In a 20-µl/well assay volume, dilutions of PCF11_1 to PCF11_8 peptides (concentrations ranged from 3.1 nM to 100 µM for peptides PCF11_4, PCF11_5, PCF11_6 and PCF11_8 in a 1-to-2 dilution pattern for 16 concentration levels, and ranged from 48.9 nM to 100 µM for peptides of PCF11_1, PCF11_2, PCF11_3, and PCF11_7 in a 1-to-2 dilution pattern for 12 concentration levels), 200 nM FAM-PCF11_4, 5 nM Tb-anti-GST and 5 nM GST-MAGE-A11 were mixed together and incubated for 90 min before the TR-FRET signal for each well was measured. The final DMSO concentration was 1.1% (v/v). […] The signal of each peptide-treated well (Signalpeptide) was normalized to the positive and negative controls to derive %inhibition of the peptide at a specific concentration with Eq. (1). Where applicable, the %Inhibition data were fit into a Sigmoidal dose response equation to derive IC50 values.1 %Inhibition=100%−100%×(Signalpeptide−SignalDMSOwithoutGST-MAGEA11)/SignalDMSO−SignalDMSOwithoutGST-MAGEA11.

[2] = target: T2, MAGE-A11:PCF11 interaction (GST-MAGE-A11 MHD and FAM-PCF11_4) (Homo sapiens, UniProt P43364); assay: TR-FRET dose response test of compounds for disruption of MAGE-A11:PCF11 binding; conditions: Supplementary Data 4; read-out: TR-FRET, IC50
T2 construct: GST-MAGE-A11 MHD (human MAGE-A11 MHD amino acid 218-429); made in house; host or cells: E. coli BL21(DE3)
T2 sequence (P43364 218-429): T1 sequence (P43364 218-429)
Method in brief: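 Competition of compounds against binding of FAM-PCF11_4 peptide to GST-MAGE-A11 MHD, detected with Tb-anti-GST, in 50 mM Tris pH 7.5, 20 mM MgCl2, 0.1 mg/ml BSA, 1 mM DTT. 90 min at ~25 °C; 520/490 nm emission ratio (340 nm excitation) fitted for IC50.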

[3] = Solubility assay (μSOL Evolution); type: physicochemical; conditions: 18 h at RT; for solubility at 18 h: citrate phosphate-buffered saline (isotonic) with 1% DMSO
Description: Solubility assays were carried out on a Biomek FX lab automation workstation (Beckman Coulter, Inc., Fullerton, CA) using μSOL Evolution software (pION Inc., Woburn, MA). The detailed method is described as follows. 10 µl of 10 mM compound stock (in DMSO) was added to 190 μl 1-propanol to make a reference stock plate. In total, 5 µl from this reference stock plate were mixed with 70 µl 1-propanol and 75 µl citrate phosphate-buffered saline (PBS; isotonic) to make the reference plate, and the UV spectrum (250–500 nm) of the reference plate was read. In total, 6 µl of 10 mM test compound stock was added to 594 µl buffer in a 96-well storage plate and mixed. The storage plate was sealed and incubated at RT for 18 h. The suspension was then filtered through a 96-well filter plate (pION Inc., Woburn, MA). In all, 75 µl of filtrate was mixed with 75 µl 1-propanol to make the sample plate, and the UV spectrum of the sample plate was read. Calculations were carried out with μSOL Evolution software based on the area under the curve (AUC) of the UV spectrum of the sample and reference plates. All compounds were tested in triplicate.

[4] = High throughput Caco-2 permeability; type: in vitro ADME; conditions: human, Caco-2, pH 7.4, 10 µmol/l, 2 h; for Papp A→B at 2 h, 10 µmol/l: apical to basolateral; for Papp B→A at 2 h, 10 µmol/l: basolateral to apical
Description: (§1) High throughput Caco-2 permeability was performed in the TranswellR 0.4 µm polycarbonate membrane 96-well system with modified methods. Caco-2 cells were maintained at 37 °C in a humidified incubator with an atmosphere of 5% CO2. The cells were cultured in 75 cm^2 flasks with Dulbecco’s Modified Eagle’s Medium (DMEM) containing 10% (v/v) FBS, 1% (v/v) non-essential amino acids (NEAA), 100 units/ml of penicillin, and 100 µg/ml of streptomycin. The Caco-2 cells were seeded onto inserts at a density of 2 × 10^4 cells/insert separately. The medium in the wells was exchanged each other day, and the trans epithelial electrical resistance (TEER) value was measured using an epithelial voltohm meter (Millipore, Billerica, Massachusetts). […] For transport experiments, each cultured monolayer on the 96-well plate was washed twice with a transport buffer (HBSS containing 25 mM HEPES, pH 7.4). The permeability assay was initiated by the addition of each compound solution (10 µmol/l) into inserts (apical side, A) or receivers (basolateral side, B). The Caco-2 cell monolayers were incubated for 2 h at 37 °C. Fractions were collected from receivers (if apical to basal permeability) or inserts (if basal to apical permeability), and concentrations were assessed by UPLC/MS (Waters; Milford, MA). All compounds were tested in triplicates. The A → B (or B → A) apparent permeability coefficients (Papp) of each compound were calculated using the equation, Papp = dQ/dt × 1/AC0, where dQ/dt equals the flux of a drug across the monolayer, A equals the total insert well surface area, and C0 is the initial concentration of substrate in the donor compartment. The efflux ratio was determined by dividing the Papp in the B-A direction by the Papp in the A-B direction.

[5] = tested on: Caco-2 cells; assay: High throughput Caco-2 permeability; type: in vitro ADME; conditions: 10 µmol/l, 2 h; for Papp A→B: apical to basolateral; for Papp B→A: basolateral to apical
Description: as §1

Structure (SMILES)	IC50 [1] [nM]	IC50 [2] [nM]	solubility at 18 h [3] [µM]	Papp A→B at 2 h, 10 µmol/l [4] [×10⁻⁶ cm/s]	Papp B→A at 2 h, 10 µmol/l [4] [×10⁻⁶ cm/s]	Solubility [3] [µM]	Papp A→B [5] [×10⁻⁶ cm/s]	Papp B→A [5] [×10⁻⁶ cm/s]
CC(C)C[C@H](NC(=O)[C@H](CC(C)C)NC(=O)[C@H](CCC(=O)O)NC(=O)[C@H](CCCNC(=N)N)NC(=O)[C@H](CCCCN)NC(=O)[C@H](CO)NC(=O)[C@H](C)NC(=O)[C@H](CC(C)C)NC(=O)[C@@H](NC(=O)[C@H](CC(C)C)NC(=O)[C@H](CCC(=O)O)NC(=O)[C@H](CCCCN)NC(=O)[C@@H]1CCCN1)[C@@H](C)O)C(=O)N[C@@H](CCC(N)=O)C(=O)N[C@@H](CCCCN)C(=O)O [PCF11_1] (H-PKELTLASKRELLQK-OH; N-terminus assumed)	> 50000	–	–	–	–	–	–	–
CC[C@H](C)[C@H](NC(=O)[C@H](CCC(=O)O)NC(=O)CNC(=O)[C@H](CO)NC(=O)[C@H](C)NC(=O)[C@H](CC(C)C)NC(=O)[C@H](CCCNC(=N)N)NC(=O)[C@H](CCC(=O)O)NC(=O)[C@H](CO)NC(=O)[C@@H](NC(=O)[C@H](CCCCN)NC(=O)[C@H](CCC(N)=O)NC(=O)[C@H](CC(C)C)NC(=O)[C@@H](N)CC(C)C)[C@@H](C)O)C(=O)N[C@H](C(=O)O)[C@@H](C)O [PCF11_2] (H-LLQKTSERLASGEIT-OH; N-terminus assumed)	> 50000	–	–	–	–	–	–	–
CC[C@H](C)[C@H](NC(=O)[C@H](CCC(N)=O)NC(=O)[C@H](Cc1c[nH]cn1)NC(=O)[C@@H](NC(=O)[C@@H](NC(=O)[C@@H](NC(=O)[C@H](CC(C)C)NC(=O)[C@H](Cc1ccccc1)NC(=O)[C@H](CC(=O)O)NC(=O)[C@H](CC(=O)O)NC(=O)[C@H](CCC(N)=O)NC(=O)[C@@H](NC(=O)[C@@H](NC(=O)[C@H](CCC(=O)O)NC(=O)CN)[C@@H](C)CC)[C@@H](C)O)C(C)C)C(C)C)C(C)C)C(=O)O [PCF11_3] (H-GEITQDDFLVVVHQI-OH; N-terminus assumed)	> 50000	–	–	–	–	–	–	–
CC[C@H](C)[C@H](N)C(=O)N[C@H](C(=O)N[C@@H](CCC(N)=O)C(=O)N[C@@H](CC(=O)O)C(=O)N[C@@H](CC(=O)O)C(=O)N[C@@H](Cc1ccccc1)C(=O)N[C@@H](CC(C)C)C(=O)N[C@H](C(=O)N[C@H](C(=O)N[C@H](C(=O)N[C@@H](Cc1c[nH]cn1)C(=O)N[C@@H](CCC(N)=O)C(=O)N[C@H](C(=O)N[C@@H](CCCNC(=N)N)C(=O)N[C@@H](CCC(N)=O)C(=O)N[C@@H](CC(C)C)C(=O)N[C@@H](Cc1ccccc1)C(=O)N[C@@H](CCC(N)=O)C(=O)N[C@@H](Cc1ccc(O)cc1)C(=O)N[C@@H](CCC(N)=O)C(=O)N[C@@H](CCC(=O)O)C(=O)NCC(=O)N[C@H](C(=O)N[C@@H](CCCNC(=N)N)C(=O)N[C@@H](CCC(=O)O)C(=O)O)C(C)C)[C@@H](C)CC)C(C)C)C(C)C)C(C)C)[C@@H](C)O [PCF11_4] (H-ITQDDFLVVVHQIRQLFQYQEGVRE-OH; N-terminus assumed)	59	–	–	–	–	–	–	–
FC(F)(F)c1cc(-c2ccc3c(NCCCNCc4ccco4)ccnc3c2)cc(C(F)(F)F)c1 [SJ000311270-01, FC(F)(F)c1cc(cc(c1)C(F)(F)F)c2ccc3c(NCCCNCc4occc4)ccnc3c2]	–	580	61.1 (≈ 30.1 µg/mL)	0.326	0.079	–	–	–
CC(C)(C)c1ccc(-c2ccc3c(NCCCNCc4ccco4)ccnc3c2)cc1 [SJ000311286-01, CC(C)(C)c1ccc(cc1)c2ccc3c(NCCCNCc4occc4)ccnc3c2]	–	1160	56.2 (≈ 23.2 µg/mL)	0.578	0.12	–	–	–
FC(F)(F)c1ccc2c(NCCCNCc3ccc4c(c3)OCO4)ccnc2c1 [SJ000361106-02]	–	–	–	–	–	128.74 (≈ 51.9 µg/mL)	47	40
FC(F)(F)c1ccc2c(NCCCNCc3ccco3)ccnc2c1 [SJ000361113-02]	–	> 70000	–	–	–	119.10 (≈ 41.6 µg/mL)	50.2	40.1
Clc1ccc2c(NCCCNCc3ccc4[nH]ccc4c3)ccnc2c1 [SJ000520909-03]	–	240	–	–	–	59.80 (≈ 21.8 µg/mL)	19.6	21.3
Brc1ccc2c(NCCCNCc3ccc4[nH]ccc4c3)ccnc2c1 [SJ001008065-01]	–	620	–	–	–	57.14 (≈ 23.4 µg/mL)	18.3	19.3
CC(C)(C)c1ccc(-c2ccc3c(NCCCNCc4ccc5[nH]ccc5c4)ccnc3c2)cc1 [SJ001008068-01]	–	130	–	–	–	0.67 (≈ 0.31 µg/mL)	0.368	1.54
FC(F)(F)c1cc(-c2ccc3c(NCCCNCc4ccc5[nH]ccc5c4)ccnc3c2)cc(C(F)(F)F)c1 [SJ001008069-01]	–	200	–	–	–	0.12 (≈ 0.0651 µg/mL)	0.498	0.229
C=CC(=O)N(CCCNc1ccnc2ccccc12)Cc1ccc2[nH]ccc2c1 [SJ001009807-01]	–	3500	–	–	–	34.77 (≈ 13.4 µg/mL)	2.73	18.9
